Measured values as given in US20150174081A1, “LIQUID PHARMACEUTICAL COMPOSITION COMPRISING NITISINONE” (Swedish Orphan Biovitrum International AB, priority 2011, published 2015).
Blank lines part the entries; values can stand above or below the compound they belong to.

Columns and labels:
[1] = Particle size diameter (PSD) of nitisinone before and after air-jet micronization; type: physicochemical
Text: A lab-scale air-jet mill, 2 inches qualification model, Sturtevant Inc., was used to micronize nitisinone obtained from the company Bachem, Switzerland. The mill was operated with tangential flow (i.e. the air and drug are fed in the same direction in the milling chamber). The unmilled drug was fed into the mill using a Venturi feed system, Syncron®, Magnet Feeder model F-TO-C, where air was used to draw the feed material into the milling chamber. A product filter bag was affixed to the outlet of the mill, through which the exhausts and the milled drug collects. The milling conditions were set as follows: • Grind air: Dry nitrogen gas • Grind pressure: 90 psi • Feed pressure: 85 psi • Room conditions: Ambient 5 g of the API was passed through the lab-scale micronizer and the resulting material was collected (3.7 g). The material was analyzed for/by particle size diameter (PSD), assay and purity by high performance liquid chromatography (HPLC), x-ray powder diffraction (XRPD), differential scanning calorimetry (DSC) and polarized light microscopy (PLM).

[2] = Stability of oxotetrahydroxanthenone solutions, LC-MS; type: physicochemical
Method: The stability study of the main degradation product in Example 6, oxotetrahydroxanthenone, is performed under similar conditions as described in Example 6. Samples of oxotetrahydroxanthenone (OTHX), 81 μg/ml in either citrate buffer pH 3.0 or phosphate buffer pH 6.8, were put on stability at +5° C., +25° C. and +37° C., respectively, for 6 months. The concentrations of OTHX and the secondary degradation products 1,3-cyclohexanedione (CHD) and 4-(trifluoromethyl)salicylic acid (TSA) were analyzed by LC-MS. The results, shown in Table XI, below, are expressed as percent of the initial concentration of OTHX. The mass balance expressed as the total recovery of CHD+OTHX+TSA compared to the initial concentration of OTHX were calculated from MmOTHX/(Mm CHD+MmTSA)×(CHDconc+TSAconc)+OTHXconc expressed in μg/ml where MmOTHX, MmCHD and MmTSA are the molecular masses corresponding to 282, 202 and 206 g/mol, respectively.

[3] = Citrate buffer pH 3.0, 5° C., 1.8 months
[4] = Citrate buffer pH 3.0, 5° C., 3 months
[5] = Citrate buffer pH 3.0, 5° C., 6 months
[6] = Citrate buffer pH 3.0, 25° C., 1.8 months
[7] = Citrate buffer pH 3.0, 25° C., 3 months
[8] = Citrate buffer pH 3.0, 25° C., 6 months
[9] = Citrate buffer pH 3.0, 37° C., 1.8 months
[10] = Citrate buffer pH 3.0, 37° C., 3 months
[11] = Citrate buffer pH 3.0, 37° C., 6 months
[12] = Phosphate buffer pH 6.8, 5° C., 1.8 months
[13] = Phosphate buffer pH 6.8, 5° C., 3 months
[14] = Phosphate buffer pH 6.8, 5° C., 6 months
[15] = Phosphate buffer pH 6.8, 25° C., 1.8 months
[16] = Phosphate buffer pH 6.8, 25° C., 3 months
[17] = Phosphate buffer pH 6.8, 25° C., 6 months
[18] = Phosphate buffer pH 6.8, 37° C., 1.8 months
[19] = Phosphate buffer pH 6.8, 37° C., 3 months
[20] = Phosphate buffer pH 6.8, 37° C., 6 months

Particle size diameter d10 [1]: 0.30 microns
Particle size diameter d20 [1]: 0.47 microns
Particle size diameter d50 [1]: 1.29 microns
Particle size diameter d80 [1]: 2.59 microns
Particle size diameter d90 [1]: 3.59 microns
Compound: O=C1CCCC(=O)C1C(=O)c1ccc(C(F)(F)F)cc1[N+](=O)[O-] [Micronized material, 2-(2-nitro-4-trifluoromethylbenzoyl)-1,3-cyclohexanedione]

Compound: O=C1CCCc2oc3cc(C(F)(F)F)ccc3c(=O)c21 [OTHX, 6-(trifluoromethyl)-3,4-dihydro-1H-xanthenene-1,9(2H)-dione]
Concentration of OTHX [2, 3]: 96.7% of the initial concentration of OTHX
Concentration of secondary degradation product CHD [2, 3]: 0.0% of the initial concentration of OTHX
Concentration of secondary degradation product TSA [2, 3]: 0.0% of the initial concentration of OTHX
Concentration of OTHX [2, 4]: 96.9% of the initial concentration of OTHX
Concentration of secondary degradation product CHD [2, 4]: 0.0% of the initial concentration of OTHX
Concentration of secondary degradation product TSA [2, 4]: 0.0% of the initial concentration of OTHX
Concentration of OTHX [2, 5]: 91.6% of the initial concentration of OTHX
Concentration of secondary degradation product CHD [2, 5]: 0.0% of the initial concentration of OTHX
Concentration of secondary degradation product TSA [2, 5]: 0.0% of the initial concentration of OTHX
Concentration of OTHX [2, 6]: 96.7% of the initial concentration of OTHX
Concentration of secondary degradation product CHD [2, 6]: 0.0% of the initial concentration of OTHX
Concentration of secondary degradation product TSA [2, 6]: 0.0% of the initial concentration of OTHX
Concentration of OTHX [2, 7]: 102.7% of the initial concentration of OTHX
Concentration of secondary degradation product CHD [2, 7]: 0.0% of the initial concentration of OTHX
Concentration of secondary degradation product TSA [2, 7]: 0.0% of the initial concentration of OTHX
Concentration of OTHX [2, 8]: 92.3% of the initial concentration of OTHX
Concentration of secondary degradation product CHD [2, 8]: 0.0% of the initial concentration of OTHX
Concentration of secondary degradation product TSA [2, 8]: 0.0% of the initial concentration of OTHX
Concentration of OTHX [2, 9]: 97.9% of the initial concentration of OTHX
Concentration of secondary degradation product CHD [2, 9]: 0.0% of the initial concentration of OTHX
Concentration of secondary degradation product TSA [2, 9]: 0.2% of the initial concentration of OTHX
Concentration of OTHX [2, 10]: 97.7% of the initial concentration of OTHX
Concentration of secondary degradation product CHD [2, 10]: 0.0% of the initial concentration of OTHX
Concentration of secondary degradation product TSA [2, 10]: 0.0% of the initial concentration of OTHX
Concentration of OTHX [2, 11]: 95.3% of the initial concentration of OTHX
Concentration of secondary degradation product CHD [2, 11]: 0.0% of the initial concentration of OTHX
Concentration of secondary degradation product TSA [2, 11]: 0.0% of the initial concentration of OTHX
Concentration of OTHX [2, 12]: 96.7% of the initial concentration of OTHX
Concentration of secondary degradation product CHD [2, 12]: 0.0% of the initial concentration of OTHX
Concentration of secondary degradation product TSA [2, 12]: 1.4% of the initial concentration of OTHX
Concentration of OTHX [2, 13]: 91.0% of the initial concentration of OTHX
Concentration of secondary degradation product CHD [2, 13]: 0.7% of the initial concentration of OTHX
Concentration of secondary degradation product TSA [2, 13]: 1.9% of the initial concentration of OTHX
Concentration of OTHX [2, 14]: 83.1% of the initial concentration of OTHX
Concentration of secondary degradation product CHD [2, 14]: 0.0% of the initial concentration of OTHX
Concentration of secondary degradation product TSA [2, 14]: 0.0% of the initial concentration of OTHX
Concentration of OTHX [2, 15]: 74.8% of the initial concentration of OTHX
Concentration of secondary degradation product CHD [2, 15]: 7.7% of the initial concentration of OTHX
Concentration of secondary degradation product TSA [2, 15]: 13.0% of the initial concentration of OTHX
Concentration of OTHX [2, 16]: 63.2% of the initial concentration of OTHX
Concentration of secondary degradation product CHD [2, 16]: 9.7% of the initial concentration of OTHX
Concentration of secondary degradation product TSA [2, 16]: 20.2% of the initial concentration of OTHX
Concentration of OTHX [2, 17]: 44.8% of the initial concentration of OTHX
Concentration of secondary degradation product CHD [2, 17]: 25.2% of the initial concentration of OTHX
Concentration of secondary degradation product TSA [2, 17]: 36.4% of the initial concentration of OTHX
Concentration of OTHX [2, 18]: 33.5% of the initial concentration of OTHX
Concentration of secondary degradation product CHD [2, 18]: 22.2% of the initial concentration of OTHX
Concentration of secondary degradation product TSA [2, 18]: 38.6% of the initial concentration of OTHX
Concentration of OTHX [2, 19]: 13.7% of the initial concentration of OTHX
Concentration of secondary degradation product CHD [2, 19]: 21.5% of the initial concentration of OTHX
Concentration of secondary degradation product TSA [2, 19]: 49.1% of the initial concentration of OTHX
Concentration of OTHX [2, 20]: 0.4% of the initial concentration of OTHX
Concentration of secondary degradation product CHD [2, 20]: 32.8% of the initial concentration of OTHX
Concentration of secondary degradation product TSA [2, 20]: 66.4% of the initial concentration of OTHX

Particle size diameter d10 [1]: 20.50 microns
Particle size diameter d20 [1]: 33.10 microns
Particle size diameter d50 [1]: 60.01 microns
Particle size diameter d80 [1]: 94.42 microns
Particle size diameter d90 [1]: 115.11 microns
Compound: O=C1CCCC(=O)C1C(=O)c1ccc(C(F)(F)F)cc1[N+](=O)[O-] [Start material, 2-(2-nitro-4-trifluoromethylbenzoyl)-1,3-cyclohexanedione]
